{"source": "ChEMBL document CHEMBL5331105", "about": "“Newly Synthesized 3-Indolyl Furanoid Inhibits Matrix Metalloproteinase-9 Activity and Prevents Nonsteroidal Anti-inflammatory Drug-Induced Gastric Ulceration” (J Med Chem, 2023)", "key": {"[1]": {"test_system": "Mus musculus", "test": "Antiulcer activity in indomethacin-induced Balb/c mouse model of gastric ulcer assessed as mean ulcer index at 50 mg/kg, po pre-administered with compound for 30 mins followed by indomethacin administration and measured after 4 hrs (reference value: 52.5 +/- 1.4)", "type": "functional", "conditions": "time 4.5 hrs"}, "[2]": {"test_system": "Mus musculus", "test": "Antiulcer activity in indomethacin-induced Balb/c mouse model of gastric ulcer assessed as inhibition of ulceration at 50 mg/kg, po pre-administered with compound for 30 mins followed by indomethacin administration and measured after 4 hrs relative to control", "type": "functional", "conditions": "time 4.5 hrs"}, "[3]": {"test": "Tmax in Sprague-Dawley rat at 250 mg/kg, po administered via gavage by HPLC analysis", "type": "ADME, organism-based", "conditions": "in vivo"}, "[4]": {"test": "AUC in Sprague-Dawley rat at 250 mg/kg, po administered via gavage by HPLC analysis", "type": "ADME, organism-based", "set-up": "dose 250 mg/kg, route po", "conditions": "in vivo"}, "[5]": {"test": "Toxicity in Balb/c mouse assessed as mortality at 150 to 300 mg/kg, po administered via gavage for 25 days", "type": "organism-based", "conditions": "in vivo, 600 h, dose 150-300 mg/kg, time 25 day"}, "[6]": {"test": "Toxicity in Balb/c mouse assessed as lethargy at 150 to 300 mg/kg, po administered via gavage for 25 days", "type": "organism-based", "conditions": "in vivo, 600 h, dose 150-300 mg/kg, time 25 day"}, "[7]": {"test": "Toxicity in Balb/c mouse assessed as abdominal distension at 150 to 300 mg/kg, po administered via gavage for 25 days", "type": "organism-based", "conditions": "in vivo, 600 h, dose 150-300 mg/kg, time 25 day"}, "[8]": {"test": "Toxicity in Balb/c mouse assessed as fur loss at 150 to 300 mg/kg, po administered via gavage for 25 days", "type": "organism-based", "conditions": "in vivo, 600 h, dose 150-300 mg/kg, time 25 day"}, "[9]": {"test": "Toxicity in Balb/c mouse assessed as hunching at 150 to 300 mg/kg, po administered via gavage for 25 days", "type": "organism-based", "conditions": "in vivo, 600 h, dose 150-300 mg/kg, time 25 day"}, "[10]": {"test": "Toxicity in Balb/c mouse assessed as effect on body weight at 150 to 300 mg/kg, po administered via gavage for 25 days", "type": "organism-based", "conditions": "in vivo, 600 h, dose 150-300 mg/kg, time 25 day"}, "[11]": {"biological_target": "T1, Prostaglandin G/H synthase 2 (Homo sapiens, UniProt P35354)", "T1 sequence (P35354 whole entry)": "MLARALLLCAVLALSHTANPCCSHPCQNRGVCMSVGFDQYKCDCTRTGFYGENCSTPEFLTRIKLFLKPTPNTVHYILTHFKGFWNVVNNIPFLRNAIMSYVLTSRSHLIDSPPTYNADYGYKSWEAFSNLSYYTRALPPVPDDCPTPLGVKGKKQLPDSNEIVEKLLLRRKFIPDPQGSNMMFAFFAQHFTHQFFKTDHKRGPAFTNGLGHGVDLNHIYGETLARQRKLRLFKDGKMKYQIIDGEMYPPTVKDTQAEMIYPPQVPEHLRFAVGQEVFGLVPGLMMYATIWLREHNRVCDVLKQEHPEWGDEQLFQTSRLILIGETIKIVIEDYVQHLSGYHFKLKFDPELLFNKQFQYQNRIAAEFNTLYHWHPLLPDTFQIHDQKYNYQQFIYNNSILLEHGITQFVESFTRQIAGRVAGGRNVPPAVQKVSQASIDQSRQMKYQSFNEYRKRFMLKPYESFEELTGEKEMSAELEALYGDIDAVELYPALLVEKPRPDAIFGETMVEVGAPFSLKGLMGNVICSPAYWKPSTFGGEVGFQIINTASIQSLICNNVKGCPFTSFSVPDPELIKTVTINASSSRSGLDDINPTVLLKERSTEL", "test": "Inhibition of COX2 (unknown origin) preincubated with compound for 5 mins followed by substrate addition and measured after 5 mins by fluorescence spectrophotometer analysis"}, "[12]": {"biological_target": "72 kDa type IV collagenase (Homo sapiens) (UniProt P08253)", "sequence (P08253 110-660 limits assumed)": "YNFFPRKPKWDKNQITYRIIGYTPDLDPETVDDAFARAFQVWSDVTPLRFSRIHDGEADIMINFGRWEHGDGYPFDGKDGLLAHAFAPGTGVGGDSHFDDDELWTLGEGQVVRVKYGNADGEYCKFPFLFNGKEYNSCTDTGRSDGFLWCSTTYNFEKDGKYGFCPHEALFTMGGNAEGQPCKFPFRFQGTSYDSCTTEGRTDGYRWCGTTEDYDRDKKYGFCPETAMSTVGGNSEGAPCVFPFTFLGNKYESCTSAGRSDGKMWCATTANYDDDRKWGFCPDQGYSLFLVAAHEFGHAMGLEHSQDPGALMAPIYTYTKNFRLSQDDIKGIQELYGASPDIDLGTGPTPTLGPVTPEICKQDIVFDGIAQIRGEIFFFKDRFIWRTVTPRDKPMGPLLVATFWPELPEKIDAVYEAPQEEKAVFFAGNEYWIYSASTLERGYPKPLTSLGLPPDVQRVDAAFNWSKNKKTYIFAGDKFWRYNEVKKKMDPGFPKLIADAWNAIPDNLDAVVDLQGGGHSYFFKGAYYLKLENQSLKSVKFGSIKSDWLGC", "test": "Inhibition of MMP-2 (unknown origin) upto 500 uM incubated for 3 hrs by SDS-PAGE analysis"}, "[13]": {"test_system": "Mus musculus", "test": "(§1) Antiulcer activity in indomethacin-induced Balb/c mouse model of gastric ulcer assessed as reduction in gastric tissue injury at 50 mg/kg, po pre-administered with compound for 30 mins followed by indomethacin administration and measured after 4 hrs by H&E staining based analysis", "type": "functional, organism-based", "conditions": "time 4.5 hrs"}, "[14]": {"test_system": "Mus musculus", "test": "as §1, with “prevention of inflammatory cell infiltration” for “reduction in gastric tissue injury”, “analysis relative to control” for “analysis”", "type": "functional", "conditions": "time 4.5 hrs"}, "[15]": {"test_system": "Mus musculus", "test": "Antiulcer activity in indomethacin-induced Balb/c mouse model of gastric ulcer assessed as reduction in mucosal injury at 50 mg/kg, po pre-administered with compound for 30 mins followed by indomethacin administration and measured after 4 hrs by H&E staining based analysis relative to control", "type": "functional", "set-up": "scale not given: the % may be the effect or the level left", "conditions": "time 4.5 hrs"}, "[16]": {"test_system": "Mus musculus", "test": "as §1, with “inflammatory cell infiltration” for “reduction in gastric tissue injury”, “analysis (reference value: 147 +/- 5.2%)” for “analysis”", "type": "functional", "conditions": "time 4.5 hrs"}, "[17]": {"test_system": "Mus musculus", "test": "Antiulcer activity in indomethacin-induced Balb/c mouse model of gastric ulcer assessed as cell injury in mucosa at 50 mg/kg, po pre-administered with compound for 30 mins followed by indomethacin administration and measured after 4 hrs by H&E staining based analysis (reference value: 70+/- 6.5 %)", "type": "functional", "conditions": "time 4.5 hrs"}, "[18]": {"test_system": "Mus musculus", "test": "Antiulcer activity in indomethacin-induced Balb/c mouse model of gastric ulcer assessed as inhibition of gastric mucosal apoptosis at 50 mg/kg, po pre-administered with compound for 30 mins followed by indomethacin administration and measured after 4 hrs by TUNEL assay", "type": "functional, organism-based", "conditions": "time 4.5 hrs"}, "[19]": {"biological_target": "T2, Matrix metalloproteinase-9 (Homo sapiens, UniProt P14780)", "T2 sequence (P14780 whole entry)": "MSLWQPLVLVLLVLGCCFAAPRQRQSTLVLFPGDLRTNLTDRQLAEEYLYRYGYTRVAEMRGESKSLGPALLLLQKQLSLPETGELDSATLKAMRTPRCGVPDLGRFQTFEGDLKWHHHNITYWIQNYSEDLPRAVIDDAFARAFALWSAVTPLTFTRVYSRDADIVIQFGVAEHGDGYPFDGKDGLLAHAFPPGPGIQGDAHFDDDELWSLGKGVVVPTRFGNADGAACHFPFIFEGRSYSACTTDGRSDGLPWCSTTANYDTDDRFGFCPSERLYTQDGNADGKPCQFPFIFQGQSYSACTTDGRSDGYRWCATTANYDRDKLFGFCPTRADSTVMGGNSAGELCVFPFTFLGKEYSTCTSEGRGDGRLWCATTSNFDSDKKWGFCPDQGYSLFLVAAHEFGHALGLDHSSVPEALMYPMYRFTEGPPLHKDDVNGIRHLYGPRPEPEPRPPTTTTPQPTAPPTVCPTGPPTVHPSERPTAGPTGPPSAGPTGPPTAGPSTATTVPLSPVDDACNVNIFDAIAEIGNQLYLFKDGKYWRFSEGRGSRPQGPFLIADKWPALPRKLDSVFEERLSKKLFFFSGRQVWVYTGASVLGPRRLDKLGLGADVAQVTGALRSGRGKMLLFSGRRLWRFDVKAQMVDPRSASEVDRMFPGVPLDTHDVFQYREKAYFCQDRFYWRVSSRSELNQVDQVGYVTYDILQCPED", "test": "Inhibition of human MMP-9 at 500 uM incubated for 3 hrs by SDS-PAGE based gelatin zymography analysis"}, "[20]": {"biological_target": "T2, Matrix metalloproteinase-9", "test": "Inhibition of human MMP-9 incubated for 3 hrs by SDS-PAGE based gelatin zymography analysis"}, "[21]": {"test_system": "Mus musculus", "test": "Antioxidant activity in indomethacin-induced Balb/c mouse model of gastric ulcer assessed as lipid peroxidation by measuring TBARS activity in stomach at 50 mg/kg, po pre-administered with compound for 30 mins followed by indomethacin administration and measured after 4 hrs by TBARS assay (reference value: 1.40 +/- 0.03 nmol/mg)", "type": "functional", "conditions": "time 4.5 hrs"}, "[22]": {"test_system": "Mus musculus", "test": "In vivo inhibition of MMP-9 expression in indomethacin-induced Balb/c mouse model of gastric ulcer at 50 mg/kg, po pre-administered with compound for 30 mins followed by indomethacin administration and measured after 4 hrs by PI staining based immunofluorescence analysis", "type": "functional, organism-based", "conditions": "time 4.5 hrs"}, "[23]": {"test_system": "Mus musculus", "test": "In vivo inhibition of MMP-9 activity in indomethacin-induced Balb/c mouse model of gastric ulcer at 50 mg/kg, po pre-administered with compound for 30 mins followed by indomethacin administration and measured after 4 hrs by SDS-PAGE based gelatin zymography method", "type": "functional, organism-based", "conditions": "time 4.5 hrs"}, "[24]": {"test_system": "Mus musculus", "test": "Antiulcer activity in indomethacin-induced Balb/c mouse model of gastric ulcer assessed as intact epithelial layer in gastric tissue at 50 mg/kg, po pre-administered with compound for 30 mins followed by indomethacin administration and measured after 4 hrs by H&E staining based analysis", "type": "functional, organism-based", "conditions": "time 4.5 hrs"}, "[25]": {"test_system": "Mus musculus", "test": "Antiulcer activity in indomethacin-induced Balb/c mouse model of gastric ulcer assessed as mean ulcer index at 12 mg/kg, po pre-administered with compound for 30 mins followed by indomethacin administration and measured after 4 hrs (reference value: 52.5 +/- 1.4)", "type": "functional", "conditions": "time 4.5 hrs"}, "[26]": {"test_system": "Mus musculus", "test": "Antiulcer activity in indomethacin-induced Balb/c mouse model of gastric ulcer assessed as inhibition of ulceration at 12 mg/kg, po pre-administered with compound for 30 mins followed by indomethacin administration and measured after 4 hrs relative to control", "type": "functional", "conditions": "time 4.5 hrs"}}, "note": "The source made the active and inactive calls. No cut-off for these calls is given here."}
{"compound": "COc1ccc2[nH]cc(-c3cc(-c4ccccc4)oc3-c3ccccc3)c2c1OC", "values": [{"measurement": "UI", "setting": "[1]", "result": 13.5}, {"measurement": "inhibition in vivo at 50 mg/kg", "setting": "[2]", "result": 74, "unit": "%"}]}
{"compound": "COc1ccc2[nH]cc(-c3cc(-c4ccccc4)oc3-c3ccccc3)c2c1", "values": [{"measurement": "UI", "setting": "[1]", "result": 9}, {"measurement": "inhibition in vivo at 50 mg/kg", "setting": "[2]", "result": 83, "unit": "%"}]}
{"compound": "COc1cccc2[nH]cc(-c3cc(-c4ccccc4)oc3-c3ccccc3)c12", "values": [{"measurement": "UI", "setting": "[1]", "result": 2.5}, {"measurement": "inhibition in vivo at 50 mg/kg", "setting": "[2]", "result": 95, "unit": "%"}, {"measurement": "Tmax", "setting": "[3]", "result": 6, "unit": "h"}, {"measurement": "AUC", "setting": "[4]", "result": 1270, "unit": "µg·h/mL"}, {"measurement": "Activity", "setting": "[5]", "result": "Non-Toxic"}, {"measurement": "Activity", "setting": "[6]", "result": "Non-Toxic"}, {"measurement": "Activity", "setting": "[7]", "result": "Non-Toxic"}, {"measurement": "Activity", "setting": "[8]", "result": "Non-Toxic"}, {"measurement": "Activity", "setting": "[9]", "result": "Non-Toxic"}, {"measurement": "Activity", "setting": "[10]", "result": "Non-Toxic"}, {"measurement": "IC50", "setting": "[11]", "result": "> 100", "unit": "µM"}, {"measurement": "inhibition", "setting": "[12]", "result": "inactive"}, {"measurement": "Activity", "setting": "[13]", "result": "Active"}, {"measurement": "Activity", "setting": "[14]", "result": 100, "unit": "%"}, {"measurement": "Activity", "setting": "[15]", "result": "~90", "unit": "%"}, {"measurement": "Activity", "setting": "[16]", "result": 92, "unit": "%"}, {"measurement": "Activity", "setting": "[17]", "result": 12, "unit": "%"}, {"measurement": "Activity", "setting": "[18]", "result": "Active"}, {"measurement": "inhibition", "setting": "[19]", "result": "Active"}, {"measurement": "IC50", "setting": "[20]", "result": "~50", "unit": "µM"}, {"measurement": "Activity", "setting": "[21]", "result": 0.47, "unit": "nmol/mg"}, {"measurement": "inhibition", "setting": "[22]", "result": "Active"}, {"measurement": "inhibition", "setting": "[23]", "result": "Active"}, {"measurement": "Activity", "setting": "[24]", "result": "Active"}]}
{"compound": "COc1ccc2[nH]c([S+]([O-])Cc3ncc(C)c(OC)c3C)nc2c1", "note": "(stereo not given) [OMEPRAZOLE]", "values": [{"measurement": "UI", "setting": "[25]", "result": 0.5}, {"measurement": "inhibition in vivo at 12 mg/kg", "setting": "[26]", "result": 100, "unit": "%"}]}
{"compound": "Oc1ccc2[nH]cc(-c3cc(-c4ccccc4)oc3-c3ccccc3)c2c1", "values": [{"measurement": "UI", "setting": "[1]", "result": 11.5}, {"measurement": "inhibition in vivo at 50 mg/kg", "setting": "[2]", "result": 78, "unit": "%"}]}
{"compound": "COc1cccc2c1c(-c1cc(-c3ccccc3)oc1-c1ccccc1)cn2C", "values": [{"measurement": "UI", "setting": "[1]", "result": 23.25}, {"measurement": "inhibition in vivo at 50 mg/kg", "setting": "[2]", "result": 56, "unit": "%"}]}
{"compound": "c1ccc(-c2cc(-c3c(-c4ccccc4)[nH]c4ccccc34)c(-c3ccccc3)o2)cc1", "values": [{"measurement": "UI", "setting": "[1]", "result": 18.25}, {"measurement": "inhibition in vivo at 50 mg/kg", "setting": "[2]", "result": 65, "unit": "%"}]}
{"compound": "c1ccc(-c2cc(-c3c[nH]c4ccccc34)c(-c3ccccc3)o2)cc1", "values": [{"measurement": "UI", "setting": "[1]", "result": 20.2}, {"measurement": "inhibition in vivo at 50 mg/kg", "setting": "[2]", "result": 62, "unit": "%"}]}
{"compound": "Oc1ccccc1-c1[nH]c2ccccc2c1-c1cc(-c2ccccc2)oc1-c1ccccc1", "values": [{"measurement": "UI", "setting": "[1]", "result": 14.5}, {"measurement": "inhibition in vivo at 50 mg/kg", "setting": "[2]", "result": 72, "unit": "%"}]}
